From ChEMBL document CHEMBL2396566, “Development of a novel class of pyrrolo-[1,2,5]benzothiadiazepine derivatives as potential anti-schistosomal agents” (2013) come the findings set out here.

Common to all, as to type: functional
Assay [1] concerns Schistosoma japonicum. As to the kind of experiment: Antiparasitic activity against Schistosoma japonicum assessed as worm survival at 50 uM incubated for 16 hrs measured after 72 hrs.
Assay [2] has as its system Schistosoma japonicum. In words: Antiparasitic activity against Schistosoma japonicum assessed as worm survival at 50 uM incubated for 16 hrs measured after 48 hrs.
Assay [3] has as its system Schistosoma japonicum. As to the kind of experiment: Antiparasitic activity against Schistosoma japonicum assessed as worm survival at 50 uM incubated for 16 hrs measured after 24 hrs.
The test system of assay [4] is Schistosoma japonicum. As to the kind of experiment: Antiparasitic activity against Schistosoma japonicum adult worm infected in ICR mouse assessed as worm reduction at 200 mg/kg, po administered for 3 days measured after 21 days. Also on record: scale not given: the % may be the effect or the level left.

For `O=C(O)C1Nc2ccccc2S(=O)(=O)n2cccc21` (configuration not stated), the survival at 50 µM in the assay with Schistosoma japonicum [1], in the assay with Schistosoma japonicum [2] and with Schistosoma japonicum [3] was 100% throughout.
With `CCOC(=O)C1Nc2ccccc2Sn2c(Br)ccc21` (configuration not stated), the Activity in the assay on Schistosoma japonicum [4] is recorded as 12%. Besides, the values for the survival at 50 µM in the assay with Schistosoma japonicum [1], in the assay on Schistosoma japonicum [2] and in the assay with Schistosoma japonicum [3] were 66.7%, 100% and 100%, respectively.
`CCOC(=O)C1Nc2ccccc2Sn2c(Cl)ccc21` (configuration not stated): the Activity with Schistosoma japonicum [4] is reported as 51.5%. For the same compound, the survival at 50 µM is 33.3% in the assay with Schistosoma japonicum [1], 83.3% with Schistosoma japonicum [2] and 100% with Schistosoma japonicum [3].
As for `CCOC(=O)C1Nc2ccccc2[S+]([O-])n2cccc21` (configuration not stated), the survival at 50 µM with Schistosoma japonicum [1], in the assay on Schistosoma japonicum [2] and in the assay with Schistosoma japonicum [3] was 100% in each case.
As for `CCOC(=O)C1Nc2ccccc2Nn2cccc21` (configuration not stated), the survival at 50 µM in the assay with Schistosoma japonicum [1], with Schistosoma japonicum [2] and with Schistosoma japonicum [3] was 100% in each case.
On to `CCOC(=O)C1Nc2ccccc2N(C)n2cccc21` (configuration not stated), for which, in the assay on Schistosoma japonicum [4], the Activity was 34.8%. For the same compound, the survival at 50 µM turned out to be 83.3% with Schistosoma japonicum [1], 100% with Schistosoma japonicum [2] and 100% with Schistosoma japonicum [3].
Take `CC1=Nc2ccccc2N(C)n2cccc21`: the Activity with Schistosoma japonicum [4] came to 24.2%. The survival at 50 µM in the assay on Schistosoma japonicum [1] turned out to be 83.3%; in the assay on Schistosoma japonicum [2] it was 100%; with Schistosoma japonicum [3], 100%.
As to `CN1c2ccccc2N=Cc2cccn21`, the Activity with Schistosoma japonicum [4] came to 6.1%. In addition, the survival at 50 µM came out at 83.3% in the assay on Schistosoma japonicum [1], 100% in the assay on Schistosoma japonicum [2] and 100% in the assay on Schistosoma japonicum [3].
Regarding `CCOC(=O)C1Nc2ccccc2Cn2cccc21` (configuration not stated), the Activity in the assay with Schistosoma japonicum [4] was found to be 74.2%. For the same compound, the survival at 50 µM is 83.3% in the assay with Schistosoma japonicum [1], 100% in the assay on Schistosoma japonicum [2] and 100% in the assay on Schistosoma japonicum [3].
Take `O=C1Nc2ccccc2Sn2cccc21`: the survival at 50 µM in the assay with Schistosoma japonicum [1], in the assay on Schistosoma japonicum [2] and with Schistosoma japonicum [3] was 100% throughout.
As for `CCOC(=O)C1Nc2ccccc2Sn2cccc21` (configuration not stated), the Activity in the assay on Schistosoma japonicum [4] is listed as 4.5%. For the same compound, the values for the survival at 50 µM in the assay with Schistosoma japonicum [1], with Schistosoma japonicum [2] and in the assay with Schistosoma japonicum [3] were 16.7%, 66.7% and 100%, respectively.
On to `CCOC(=O)C1Nc2ccccc2S(=O)(=O)n2cccc21` (configuration not stated), for which the survival at 50 µM in the assay with Schistosoma japonicum [1], in the assay with Schistosoma japonicum [2] and in the assay on Schistosoma japonicum [3] was 100% throughout.
As for `O=C(C1CCCCC1)N1CC(=O)N2CCc3ccccc3C2C1` (configuration not stated) [PRAZIQUANTEL], the Activity in the assay with Schistosoma japonicum [4] was determined as 96.9%. Also, the survival at 50 µM was 33.3% in the assay on Schistosoma japonicum [1], 33.3% in the assay with Schistosoma japonicum [2] and 66.7% in the assay with Schistosoma japonicum [3].
